Values of other authors, collected in patent publication US20050169894A1, “Compositions and methods for ex vivo preservation of blood vessels for vascular grafts using inhibitors of Type III and/or Type IV phosphodiesterases” (priority 2003, published 2005).

Assays:
endothelial cells = settings: stated as known; about 4 mM
[1] = system: Type IV phosphodiesterase; settings: at high concentrations; Lugnier and Komas, 1993
Type V phosphodiesterase = Type V phosphodiesterase (Homo sapiens, UniProt O76074); settings: at high concentrations; Lugnier and Komas, 1993

inhibition of Type IV phosphodiesterase activity [1] | inhibition of Type V phosphodiesterase activity (Type V phosphodiesterase) | SMILES | concentration toxic to endothelial cells (endothelial cells)
 |  | CCCC(=O)Nc1ncnc2c1ncn2[C@@H]1O[C@@H]2COP(=O)(O)O[C@H]2[C@H]1OC(=O)CCC [db cAMP, dibutyryl adenosine 3′,5′-cyclic monophosphate] | higher than 4 mM
inhibits | inhibits | Cc1[nH]c(=O)c(C#N)cc1-c1ccncc1 [milrinone, Milrinone] | 
